Test results reported in paper PMC7756582, “Prodrugs of γ‐Alkyl‐Modified Nucleoside Triphosphates: Improved Inhibition of HIV Reverse Transcriptase” (Angewandte Chemie (International Ed. in English), 2020).
Where two headings read alike, the source gives them in different places.

Assays:
[1] = test system: HIV-2(ROD); experiment: Anti-HIV activity assay, HIV-2-infected wild-type CEM/0 cell cultures; type: cell-based; conditions: Human immunodeficiency virus 2, CCRF-CEM, read-out: EC50 CEM/0 HIV-2
Description: γ‐(AB,alkyl)‐d4TTP prodrugs 6 and the γ‐alkyl‐d4TTPs 7 were evaluated for their ability to inhibit the replication of HIV in HIV‐1‐ or HIV‐2‐infected wild‐type CEM/0 as well as mutant thymidine‐kinase‐deficient CEM cell cultures (CEM/TK^−). For comparison, two TriPPPro derivatives 5 were also included in this assay.
(§1) Anti-HIV activity assay: Inhibition of HIV-1(IIIB)- and HIV-2(ROD)-induced cytopathicity in wild-type CEM/0 and thymidine kinase-deficient CEM/TK- cell cultures was measured in microtiter 96-well plates containing ~3·105 CEM cells/mL infected with 100 CCID50 of HIV per milliliter and containing appropriate dilutions of the test compounds. After 4−5 days of incubation at 37 °C in a CO2-controlled humidified atmosphere, CEM giant (syncytium) cell formation was examined microscopically. […]
was defined as the compound concentration required to inhibit HIV-induced giant cell formation by 50%. […]
(§2) The result was visualized by fluorescence imaging. […]
as §2

[2] = molecular target: T1, human DNA polymerase β (Homo sapiens, UniProt P06746); experiment: Primer extension assay with human DNA polymerase β; type: biochemical; conditions: single triphosphate, 66 μM, Pol β 6 U, 60 min
T1 construct: purchased Roboklon
Description: Two different set‐ups have been used. First, a mixture of dATP, dCTP, dGTP, and γ‐alkyl‐TTP (N*) or ‐d4TTP (T*) was used as a mixture. The results obtained from these experiments were compared to those in which just γ‐alkyl‐TTP (N) or d4TTP (T) was used. In each experiment a primer extension without added polymerase (negative control, ‐ lane) and an experiment in which all four canonical NTPs were added (positive control, +lane) were used as controls.
Figure 4 Primer extension assay using DNA polymerase β and the γ‐alkyl‐dNTP 7 and 15. Lane 1 (−): dATP, dGTP, dCTP and TTP without human DNA polymerase β; lane 2 (+): dATP, dGTP, dCTP, and TTP with human Pol β; lane 3 (N, C4‐T): γ‐C4‐TTP 15 w; lane 4 (N, C18‐T): γ‐C18‐TTP 15 z; lane 5 (T, C4‐d4T): γ‐C4‐d4TTP 7 w; lane 6 (T, C11‐d4T): γ‐C11‐d4TTP 7 x; lane 7 (T, C18‐d4T): γ‐C18‐d4TTP 7 z; lane 8 (d4TTP): d4TTP. […]
as §1, with “compounds.” for “compounds. After 4−5 days of incubation at 37 °C in a CO2-controlled humidified atmosphere, CEM giant (syncytium) cell formation was examined microscopically.”
2) For HIV- RT assay: The final assay solution (10 µL) consists of 50 mM Tris-HCl (pH 8.6 at 22 °C), 10 mM MgCl2, 40mM KCl, dNTPs 66 µM, HIV RT 6 U, Hybrid 0.32 µM in a reaction volume of 10 µL, incubated 37 °C for 15 min, 80 °C for 3 min; 50 mA, 45w for 4 h. […] The result was visualized by fluorescence imaging.
3) For human DNA pol β assay: The final assay solution (10 µL) consists of 50 mM Tris-HCl (pH 8.7), 10 mM MgCl2, 100mM KCl, 1.0 mM dithiothreitol, 0.4 mg/ml of bovine serum albumin, 15% glycerol, dNTPs 66 µM, DNA Polymerase Beta 6 U, Hybrid 0.32 µM in a reaction volume of 10 µL, incubated 37 °C for 60 min, 80 °C for 3 min; 50 mA, 45w for 4 h. […] The result was visualized by fluorescence imaging. […]

[3] = wild-type CEM/0 cells, HIV-2, mean±SD, n=2-3

EC50 [1, 3]	Compound	EC50 [1]	primer extension by DNA polymerase β (substrate properties) [2]
160 ± 100 nM	CCCCCCCCCCCCCCCCCCOP(=O)(OCc1ccc(OC(=O)CCCC)cc1)OP(=O)(O)OP(=O)(O)OCC1C=CC(n2cc(C)c(=O)[nH]c2=O)O1 (centres unmarked) [6 cz, γ‐(AB‐C4,alkyl‐C18)‐d4TTP]		
	CCCCOP(=O)(O)OP(=O)(O)OP(=O)(O)OCC1C=CC(n2cc(C)c(=O)[nH]c2=O)O1 (centres unmarked) [7 w, γ‐C4‐d4TTP]	290 ± 150 nM	good substrate
240 ± 10 nM	CCCCCCCCCCCCCCCC(=O)Oc1ccc(COP(=O)(OCCCC)OP(=O)(O)OP(=O)(O)OCC2C=CC(n3cc(C)c(=O)[nH]c3=O)O2)cc1 (centres unmarked) [6 ew, γ‐(AB‐C15,alkyl‐C4)‐d4TTP]		
	Cc1cn(C2C=CC(COP(=O)(O)OP(=O)(O)OP(=O)(O)O)O2)c(=O)[nH]c1=O (centres unmarked) [2 t, d4TTP, reference compound]	400 ± 260 nM	efficiently incorporated
	CCCCCCCCCCCCCCCCCCOP(=O)(O)OP(=O)(O)OP(=O)(O)OCC1C=CC(n2cc(C)c(=O)[nH]c2=O)O1 (centres unmarked) [7 z, γ‐C18‐d4TTP]	110 ± 84 nM	no incorporation was detected
